Laboratory results reported in PubChem BioAssay AID1919016 (Molecular Pharmacology Branch, DTP, NCI, 2023).

Test system: NCI-H196 complex spheroid growth, percent test/control
Test: Anticancer human tumor NCI-H196 cell line growth inhibition [AhR];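 note: seven days of drug exposure starting three days after plating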;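 for viability, T/C: 100% = DMSO vehicle control wells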
Settings: for IC50: curve of first compound; for viability, T/C: stronger effect = lower value
Procedure, shortened: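 Complex tumor spheroids co-cultured with HUVEC and human MSC stroma; AhR antagonists tested in combination with standard-of-care and investigational agents. Top concentration at or near clinical Cmax (else 10 microM), half-log dilutions; growth expressed as percent test/control.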

[1] = second compound 0.1 µM, first compound 0.0316 µM
[2] = second compound 0.1 µM, first compound 0.1 µM
[3] = second compound 0.1 µM, first compound 0.316 µM
[4] = second compound 0.1 µM, first compound 1 µM
[5] = second compound 0.1 µM, first compound 3.16 µM
[6] = second compound 0.1 µM, first compound 10 µM
[7] = second compound 0.316 µM, first compound 0.0316 µM
[8] = second compound 0.316 µM, first compound 0.1 µM
[9] = second compound 0.316 µM, first compound 0.316 µM
[10] = second compound 0.316 µM, first compound 1 µM
[11] = second compound 0.316 µM, first compound 3.16 µM
[12] = second compound 0.316 µM, first compound 10 µM
[13] = second compound 1 µM, first compound 0.0316 µM
[14] = second compound 1 µM, first compound 0.1 µM
[15] = second compound 1 µM, first compound 0.316 µM
[16] = second compound 1 µM, first compound 1 µM
[17] = second compound 1 µM, first compound 3.16 µM
[18] = second compound 1 µM, first compound 10 µM
[19] = second compound 3.16 µM, first compound 0.0316 µM
[20] = second compound 3.16 µM, first compound 0.1 µM
[21] = second compound 3.16 µM, first compound 0.316 µM
[22] = second compound 3.16 µM, first compound 1 µM
[23] = second compound 3.16 µM, first compound 3.16 µM
[24] = second compound 3.16 µM, first compound 10 µM
[25] = second compound 10 µM, first compound 0.0316 µM
[26] = second compound 10 µM, first compound 0.1 µM
[27] = second compound 10 µM, first compound 0.316 µM
[28] = second compound 10 µM, first compound 1 µM
[29] = second compound 10 µM, first compound 3.16 µM
[30] = second compound 10 µM, first compound 10 µM

| IC50 (second compound 0.1 µM) | IC50 (second compound 0.316 µM) | IC50 (second compound 1 µM) | IC50 (second compound 3.16 µM) | IC50 (second compound 10 µM) | Compound | viability, T/C [1] | viability, T/C [2] | viability, T/C [3] | viability, T/C [4] | viability, T/C [5] | viability, T/C [6] | viability, T/C [7] | viability, T/C [8] | viability, T/C [9] | viability, T/C [10] | viability, T/C [11] | viability, T/C [12] | viability, T/C [13] | viability, T/C [14] | viability, T/C [15] | further results |
| --- | --- | --- | --- | --- | --- | --- | --- | --- | --- | --- | --- | --- | --- | --- | --- | --- | --- | --- | --- | --- | --- |
| 1480 nM | 1760 nM | 1720 nM | 1870 nM | 2030 nM | O=C(C=Cc1cccc(S(=O)(=O)Nc2ccccc2)c1)NO + Cc1ccccc1N=Nc1ccc(NC(=O)c2ccnn2C)c(C)c1 | 93% | 100% | 87.8% | 62% | 25.5% | 0.66% | 92.7% | 96.5% | 104% | 69.9% | 27.4% | 0.67% | 102% | 94.5% | 90.4% | viability, T/C [16]: 74.2%; viability, T/C [17]: 23.7%; viability, T/C [18]: 3.01%; viability, T/C [19]: 93.6%; viability, T/C [20]: 91.9%; viability, T/C [21]: 91.1%; viability, T/C [22]: 72%; viability, T/C [23]: 31.3%; viability, T/C [24]: 1.68%; viability, T/C [25]: 87.9%; viability, T/C [26]: 90.8%; viability, T/C [27]: 81.6%; viability, T/C [28]: 72.4%; viability, T/C [29]: 36.4%; viability, T/C [30]: 0.98% |
| > 10000 nM | > 10000 nM | > 10000 nM | > 10000 nM | > 10000 nM | O=C(c1cc(Cc2n[nH]c(=O)c3ccccc23)ccc1F)N1CCN(C(=O)C2CC2)CC1 + Cc1ccccc1N=Nc1ccc(NC(=O)c2ccnn2C)c(C)c1 | 109% | 101% | 107% | 94.1% | 91.4% | 102% | 99.5% | 103% | 102% | 93.1% | 108% | 102% | 99.4% | 107% | 98.3% | viability, T/C [16]: 99.1%; viability, T/C [17]: 100%; viability, T/C [18]: 93.6%; viability, T/C [19]: 90.8%; viability, T/C [20]: 105%; viability, T/C [21]: 95.9%; viability, T/C [22]: 108%; viability, T/C [23]: 96.9%; viability, T/C [24]: 101%; viability, T/C [25]: 87.2%; viability, T/C [26]: 90.1%; viability, T/C [27]: 99.1%; viability, T/C [28]: 98.8%; viability, T/C [29]: 103%; viability, T/C [30]: 83.4% |
| 665 nM | 662 nM | 668 nM | 646 nM | 875 nM | COc1cccc2c1C(=O)c1c(O)c3c(c(O)c1C2=O)CC(O)(C(=O)CO)CC3OC1CC(N)C(O)C(C)O1 (stereo not given) + Cc1ccccc1N=Nc1ccc(NC(=O)c2ccnn2C)c(C)c1 | 113% | 102% | 79.4% | 36.2% | 3.08% | 7.85% | 101% | 100% | 76.8% | 36.7% | 1.54% | 5.07% | 99.5% | 105% | 78.5% | viability, T/C [16]: 35.9%; viability, T/C [17]: 2.43%; viability, T/C [18]: 8.49%; viability, T/C [19]: 91.5%; viability, T/C [20]: 93.8%; viability, T/C [21]: 76.6%; viability, T/C [22]: 34.7%; viability, T/C [23]: 2.43%; viability, T/C [24]: 13%; viability, T/C [25]: 97.2%; viability, T/C [26]: 92.2%; viability, T/C [27]: 90.7%; viability, T/C [28]: 44.3%; viability, T/C [29]: 2.3%; viability, T/C [30]: 12.7% |
